Data taken from patent US20250188080A1, “IMIDAZOLONYLQUINOLINE COMPOUNDS AND THERAPEUTIC USES THEREOF” (Merck Patent GmbH, priority 2019, published 2025).

What was measured:
[1] = system: CYP1A2, CYP2C8, CYP2C9, CYP2C19, CYP2D6, CYP3A4; test: Cytochrome P-450 enzymes (CYP) inhibition, P450-Glo; format: in vitro ADME; conditions: human
Description: In the human organism, drug substances are converted to water-soluble compounds by enzyme systems to facilitate their excretion. These enzyme systems include microsomal cytochrome P-450 enzymes, CYPs for short. The assay is designed to identify whether a compound may be a strong inhibitor for defined CYP isoforms. This involves the use of recombinant CYP isoforms and their reductase obtained by overexpression in insect cells infected with baculovirus. The CYP reaction is performed through […] of the CYP isoform being tested along with a luminometric CYP substrate under NADPH-regenerating conditions. The luminometric P450-Glo™ substrates are derivatives of beetle luciferin ((4S)-4,5-dihydro-2-(6-hydroxybenzothiazolyl)-4-thiazolecarboxylic acid or D-luciferin), a substrate of firefly luciferase from beetles. […] This allows enzyme activity to be quantified rapidly through the luminosity. […] The following commercially available screening systems/assays are used: P450-Glo™ CYP1A2 Screening System (Promega Corporation; V9770); P450-Glo™ CYP2C8 Assay (Promega Corporation; V8782); P450-Glo™ CYP2C9 Screening System (Promega Corporation; V9790); P450-Glo™ CYP2C19 Screening System (Promega Corporation; V9880); P450-Glo™ CYP2D6 Screening System (Promega Corporation; […]); P450-Glo™ CYP3A4 Screening System (Luciferin-PPXE) (Promega Corporation; V9910).

[2] = molecular target: T1, Kv11.1 hERG cardiac ion channel (Homo sapiens, UniProt Q12809); test: Kv11.1 (hERG) ion channel activity (patch clamp assay); format: cell-based; conditions: HEK293 transfected with hERG
T1 construct: expressed in transfected cells; host or cells: HEK293 (human embryonic kidney cells), stably transfected
Description: Method for the detection and characterisation of test substances which interfere with the Kv11.1 (hERG) channel: Kv11.1 (hERG, human ether a-go-go related gene) is a potassium channel which plays a central role for repolarisation of the cells in the ventricular cardiomyocytes.
The patch-clamp measurement was carried out at room temperature in whole-cell configuration on human embryonic kidney cells (HEK293) which have been transfected in a stable manner with the hERG gene.
The whole-cell configurations were carried out using an automated patch clamp device (Patchliner™, Nanion Technologies, Munich). […]
The cells were clamped to a holding potential of −80 mV. […] DMSO (vehicle control, 0.1% of DMSO) was then applied, and the control current was recorded for 3 min. The test substance was subsequently added twice in the same concentration, and the potassium current was measured for 3.5 min in each case.
If the measurement result of a test substance at an initial concentration of 10 μM was smaller than (−)50% effect (threshold value) (for example (−)60% effect), the test substance was, in order to determine a dose/action relationship, added cumulatively in increasing concentration, where each concentration was measured for 5 min.
The reference substance used was the Kv11.1 (hERG) ion channel blocker quinidine. […] For the calculation, the current was evaluated for the respective final trace. […]

T1 sequence (Q12809 whole entry): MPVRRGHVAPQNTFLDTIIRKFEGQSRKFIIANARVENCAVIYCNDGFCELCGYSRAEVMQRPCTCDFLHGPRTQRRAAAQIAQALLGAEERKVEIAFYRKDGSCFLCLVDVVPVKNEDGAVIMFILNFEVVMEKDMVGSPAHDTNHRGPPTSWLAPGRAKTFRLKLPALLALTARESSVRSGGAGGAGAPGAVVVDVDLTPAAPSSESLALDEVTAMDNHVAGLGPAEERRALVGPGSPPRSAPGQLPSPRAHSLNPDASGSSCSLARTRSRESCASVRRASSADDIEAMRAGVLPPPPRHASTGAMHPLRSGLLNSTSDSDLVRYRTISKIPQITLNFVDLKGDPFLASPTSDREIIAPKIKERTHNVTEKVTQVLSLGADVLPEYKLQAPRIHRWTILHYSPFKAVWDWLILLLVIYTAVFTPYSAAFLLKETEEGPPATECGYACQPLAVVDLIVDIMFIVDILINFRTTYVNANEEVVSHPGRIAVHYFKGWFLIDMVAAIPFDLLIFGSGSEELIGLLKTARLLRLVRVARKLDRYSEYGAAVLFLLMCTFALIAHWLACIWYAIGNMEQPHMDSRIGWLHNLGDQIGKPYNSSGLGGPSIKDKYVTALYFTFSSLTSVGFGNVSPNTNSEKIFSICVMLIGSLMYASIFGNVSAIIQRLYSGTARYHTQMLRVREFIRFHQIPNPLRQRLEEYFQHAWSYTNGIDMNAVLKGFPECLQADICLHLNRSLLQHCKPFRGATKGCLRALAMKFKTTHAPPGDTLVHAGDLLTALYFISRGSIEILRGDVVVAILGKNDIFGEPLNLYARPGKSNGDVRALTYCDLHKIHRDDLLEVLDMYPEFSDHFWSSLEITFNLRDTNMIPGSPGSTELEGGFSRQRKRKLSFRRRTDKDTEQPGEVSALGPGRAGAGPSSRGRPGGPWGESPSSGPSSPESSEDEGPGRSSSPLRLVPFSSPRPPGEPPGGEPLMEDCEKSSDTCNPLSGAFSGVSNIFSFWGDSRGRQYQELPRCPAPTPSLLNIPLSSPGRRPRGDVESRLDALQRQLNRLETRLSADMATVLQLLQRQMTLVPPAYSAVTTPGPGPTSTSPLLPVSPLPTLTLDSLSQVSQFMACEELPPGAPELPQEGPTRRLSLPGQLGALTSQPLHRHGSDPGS

Compound `COc1cc2ncc3c(c2cc1-c1cn(C)nc1C)n(-c1c(F)cncc1OC)c(=O)n3C` (single isomer, unassigned) [Compound 1, 8-(1,3-Dimethyl-1H-pyrazol-4-yl)-1-(Sa)-(3-fluoro-5-methoxy-pyridin-4-yl)-7-methoxy-3-methyl-1,3-dihydro-imidazo[4,5-c]quinolin-2-one] has an IC50 [1] of no less than 20 µM and a Ki [2] greater than 30 µM.
